Experiments:
ALAS1 = assay: Western blot analysis of ALAS1 expression in SKCO1 cells; format: cell-based, human; conditions: 5 mM ALA for 16, 24 and 48 hours vs untreated
Method: (A) Heme content in SHSY5Y cells non-treated (NT) or treated with 5 mM ALA for 15 hours. Values are expressed as pmol heme/mg protein. Data represent mean±SEM, n=3; *=P<0.05. (B, C) qRT-PCR analysis of the expression of ALAS1 (B) and FLVCR1a (C) in SHSY5Y cells non-treated (NT) or treated with 5 mM ALA for 15 hours. Transcript abundance, normalized to beta-actin mRNA expression, is expressed as a fold increase over a calibrator sample. Data represent mean±SEM, n=4. For statistical analyses, an unpaired Student's t-test was used; *p<0.05. (D) qRT-PCR analysis of the expression of ALAS1 in SKCO1 cells untreated (NT) or treated with 5 mM ALA for 24 hours. Transcript abundance, normalized to beta-actin mRNA expression, is expressed as a fold increase over a calibrator sample. Data represent mean±SEM, n=5. […] Band intensities were measured by densitometry and normalized to beta-actin expression. […] (F) Proliferation of SHSY5Y cells assessed by crystal violet staining at different time points (starting from the day after plating, named “day 0”). Treatment with 5 mM ALA occurred at “day 0” and cells were monitored until the end of the experiment without medium refresh. […] (G) SKCO1 cells viability measured by the CellTiter-Fluor Cell Viability Assay (Promega, Madison, WI USA, catalog n°G6080) at different time points, starting from the day after plating (named “day 0”), as a readout of cell proliferation. […]

Caco2 cells = assay: Heme content (fluorescence assay) in Caco2 cells; format: cell-based, human; conditions: FLVCR1a-silenced vs scramble shRNA Caco2 cells, 5 mM 5-ALA, time course
Method: (A) Heme content in Caco2 cells treated with 5 mM 5-ALA (black bars and white bars) or with 5 mM 5-ALA+0.5 mM SA (light grey outlined bars) for the indicated time points. […] Values are expressed as relative fluorescence intensity. Data represent mean±SEM, n=2. For statistical analyses, a two-way analysis of variance was used, followed by the Bonferroni correction for multiple group comparisons; **=p<0.01, ***=p<0.001. 5-ALA, 5-aminolevulinic acid; SA, succinylacetone. (B) Intracellular 5-ALA levels. […] Values are expressed as peak area/μg proteins. Data represent mean±SEM of n=4 wells pooled from two independent experiments. For statistical analyses, an unpaired Student's t-test was used; **=p<0.01. 5-ALA, 5-aminolevulinic acid. […] Values are expressed as peak area/μg proteins. […] Transcript abundance, normalized to beta-actin mRNA expression, is expressed as a fold increase over a calibrator sample. […] Band intensities were measured by densitometry and normalized to vinculin expression. […]
Intracellular heme concentration was measured using a fluorescence assay, as previously reported (Sinclair et al., 2001). […] Fluorescence (wavelength: excitation 405 nm-emission 660-720 nm) of the resultant protoporphyrin was assessed on a Glomax Multi Detection System (Promega Corporation, Madison WI, USA).
The endogenous protoporphyrin content (measured in parallel unheated samples in oxalic acid) was subtracted. […]

Cl.NCC(=O)CCC(=O)O [5-ALA, 5-Aminolevulinic acid hydrochloride]
ALAS1 protein levels (ALAS1): decreased

FLVCR1a shRNA: shRNA specifically down-regulating FLVCR1a without targeting FLVCR1b; pLKO.1 lentiviral clone TRCN0000059599, antisense SEQ ID No.: 2 (antisense TTGCTAATGATGCTGTACTGG; sense CCAGTACAGCATCATTAGCAA)
intracellular heme upon induction of heme biosynthesis (Caco2 cells): faster and higher increase in the amount of intracellular heme than control cells
